Values of other authors in patent EP1691200A1, “The use of BNP-type peptides and ANP-type peptides for assessing the risk of suffering from a cardiovascular complication as a consequence of volume overload” (F. HOFFMANN-LA ROCHE AG, priority 2005, dated 2006).

CS(=O)(=O)c1ccc(C2=C(c3ccccc3)C(=O)OC2)cc1 [rofecoxib]
additional cardiovascular incidents (myocardial infarction, stroke) (25 mg rofecoxib compared with a placebo, after 18 months of follow-up): 16 per 1,000 treated patients
blood pressure levels (25 mg rofecoxib compared with a placebo, early post-observation phase): higher blood pressure levels
rise in the rate of serious thromboembolic incidents (APPROVE study, patients without any recognisable cardiovascular risk, led to premature discontinuation): 3.9 times
